Results taken from patent publication US20110046147A1, “17BETA-HYDROXYSTEROID DEHYDROGENASE TYPE 1 INHIBITORS FOR THE TREATMENT OF HORMONE-RELATED DISEASES” (UNIVERSITAT DES SAARLANDES, priority 2007, published 2011).

Experiments:
CaCo-2 cells = assay: CaCo2 transport assay; assay type: in vitro ADME; details: 50 μM in donor compartment
Experimental: (§1) Performance of selected compounds in a CaCo2 assay: Caco-2 cell culture and transport experiments were performed according to Yee (Yee, S., Pharm. Res., 14(6): 763-766 (1997)), but slight modifications were introduced. The cultivation times were reduced from 21 to 10 days by increasing the sowing density from 6.3·10^4 to 1.65·10^5 cells per well. […] The initial concentration of the compounds in the donor compartment was 50 μM (in buffer with 1% ethanol or DMSO). Samples were taken from the acceptor side after 60, 120 and 180 min and from the donor side after 0 and 180 min. For glycoprotein P (P-gp) studies, bidirectional experiments were performed. The absorptive and secretory permeabilities (Papp (a-b) and Papp (b-a)) were determined. Thus, erythromycin was used as a substrate, and verapamil was used as an inhibitor of P-gp. Each experiment was performed in triplicate. The integrity of the monolayer was determined by means of TEER (transepithelial electric resistance) and the permeability for each assay was determined using Lucifer Yellow. All samples of the CaCo-2 transport experiments were analyzed by means of LC/MS/MS after dilution with buffer (1:1 with 2% acetic acid). The apparent permeability coefficient (Papp) was calculated by means of the formula given below, where dQ/dt represents the recovery rate of the mass in the acceptor compartment, A represents the surface area of the transwell membrane, and c0 represents the initial concentration in the donor compartment.

CaCo2 transport assay = assay type: in vitro ADME; details: human, Caco-2; 50 μM in donor compartment; read-out: Papp [cm/sec ± rel. SD]
Experimental: as §1

17β-HSD2 = biological target: T1, 17β-HSD2 (Homo sapiens, UniProt P37059); assay: Inhibition of 17β-HSD2 (estradiol to estrone, radio-HPLC); assay type: biochemical; details: human placenta microsome fraction, 500 nM estradiol, NAD+ 1500 μM
T1 construct: from tissue; host or cells: human placenta, microsome fraction
T1 sequence (P37059 1-387): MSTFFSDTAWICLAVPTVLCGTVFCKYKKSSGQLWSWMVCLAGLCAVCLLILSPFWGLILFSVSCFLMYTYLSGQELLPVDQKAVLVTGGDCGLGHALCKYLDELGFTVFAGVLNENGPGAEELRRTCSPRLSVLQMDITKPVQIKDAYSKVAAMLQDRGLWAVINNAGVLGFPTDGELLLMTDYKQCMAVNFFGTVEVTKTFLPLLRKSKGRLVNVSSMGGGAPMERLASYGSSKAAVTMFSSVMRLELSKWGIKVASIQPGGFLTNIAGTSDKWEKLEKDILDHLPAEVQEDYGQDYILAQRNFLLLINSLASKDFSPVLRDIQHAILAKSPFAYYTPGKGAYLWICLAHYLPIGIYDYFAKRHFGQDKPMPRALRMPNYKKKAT
Experimental: Determination of the inhibitory activity of the potential inhibitors: Inhibition of 17β-HSD1 and 17β-HSD2: In both cases, human placenta served as the enzyme source (Lin, S.-X. et al., J. Biol. Chem., 267: 16182-16187 (1992)).
In the 17β-HSD2 test, the natural cosubstrate NAD^+ is employed at a final concentration of 1500 μM. The microsome fraction is diluted in test buffer, so that a control conversion of 20 to 30% results (about 1:350). As the substrate, estradiol in a final concentration of 500 nM is used, of which 3 nM is tritiated. 2,4,6,7-[^3H]estradiol is also purchased from Perkin-Elmer, Boston. The inhibitor is added as a solution in DMSO (control: pure DMSO without inhibitor; the final concentration of DMSO in the assay is […]). After the addition of the substrate, incubation is performed at 37° C. for 20 minutes. The reaction is quenched by the addition of HgCl2 (final concentration of HgCl2: 0.166 mM).
(§2) After the reaction, the substrate and product are extracted by partitioning with ether, separated by chromatography (HPLC) and quantified by means of radiodetection.

17β-HSD1 = biological target: T2, 17β-HSD1 (Homo sapiens, UniProt P14061); assay: Inhibition of 17β-HSD1 (estrone to estradiol, radio-HPLC); assay type: biochemical; details: for IC50: human placenta enzyme, 500 nM estrone, NADH 500 μM; for Selectivity IC50 (17β-HSD2)/IC50 (17β-HSD1): ratio of IC50 values
T2 construct: In both cases, human placenta served as the enzyme source; from tissue; host or cells: human placenta
T2 sequence (P14061 1-328): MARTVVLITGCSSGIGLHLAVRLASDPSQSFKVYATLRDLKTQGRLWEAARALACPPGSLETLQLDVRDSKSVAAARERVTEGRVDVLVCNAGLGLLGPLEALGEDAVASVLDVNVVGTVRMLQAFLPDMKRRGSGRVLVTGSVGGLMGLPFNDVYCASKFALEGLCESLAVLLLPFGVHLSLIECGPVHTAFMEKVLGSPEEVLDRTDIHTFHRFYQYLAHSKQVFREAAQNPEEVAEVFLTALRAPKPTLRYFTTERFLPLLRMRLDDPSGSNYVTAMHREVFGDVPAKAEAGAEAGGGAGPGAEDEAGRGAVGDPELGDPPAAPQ
Experimental: In the 17β-HSD1 test, NADH is employed as a cosubstrate at a final concentration of 500 μM in order to avoid the product inhibition occurring with NADPH. The enzyme preparation is diluted with test buffer to such an extent that the control conversion is 10 to maximally 20% (about 1:650). As the substrate, estrone in a final concentration of 500 nM is used, of which 3 nM is tritiated. 2,4,6,7-[^3H]estrone is purchased from Perkin-Elmer, Boston. The inhibitor is added as a solution in DMSO (control: pure DMSO without inhibitor; the final concentration of DMSO in the assay is 1% in all cases).
as §2

CYP2C19 = biological target: T3, CYP2C19 (Homo sapiens, UniProt P33261); assay: Inhibition of hepatic CYP enzymes: CYP2C19; assay type: biochemical
T3 construct: purchased Becton Dickinson GmbH (Heidelberg)
Source text: (§3) Drug interactions (inhibition of hepatic CYP enzymes): The inhibition of six human hepatic cytochrome P450 enzymes by selected compounds was examined by means of the kit supplied by Becton Dickinson GmbH (Heidelberg).

CYP1A2 = biological target: T4, CYP1A2 (Homo sapiens, UniProt P05177); assay: Inhibition of hepatic CYP enzymes: CYP1A2; assay type: biochemical; details: read-out: CYP1A2 IC50 (mean ± SD)
T4 construct: purchased Becton Dickinson GmbH (Heidelberg)
T4 sequence (P05177 1-516): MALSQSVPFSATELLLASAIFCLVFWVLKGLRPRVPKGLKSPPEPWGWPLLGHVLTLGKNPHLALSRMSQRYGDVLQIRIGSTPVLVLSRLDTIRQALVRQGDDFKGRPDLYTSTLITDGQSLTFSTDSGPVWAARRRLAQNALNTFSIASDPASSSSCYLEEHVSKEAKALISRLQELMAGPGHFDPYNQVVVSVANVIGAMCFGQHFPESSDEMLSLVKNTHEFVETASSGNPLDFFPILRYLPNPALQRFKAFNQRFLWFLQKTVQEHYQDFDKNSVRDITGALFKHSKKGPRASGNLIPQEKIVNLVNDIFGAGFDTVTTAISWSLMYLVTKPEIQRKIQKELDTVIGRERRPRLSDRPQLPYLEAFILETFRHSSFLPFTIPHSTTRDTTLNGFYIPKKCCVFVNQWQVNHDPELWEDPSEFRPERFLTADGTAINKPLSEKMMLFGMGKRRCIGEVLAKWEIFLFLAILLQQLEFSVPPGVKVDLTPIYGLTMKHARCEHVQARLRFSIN
Source text: as §3

[1] = In vivo pharmacokinetics (rat), peroral cassette dosing; design: species or system Wistar rats; details: 10 mg/kg; for AUC(0-inf): extrapolated to ∞
Experimental: In vivo pharmacokinetics (rat): The compounds 29, 45, 47 and 59 and a reference compound were administered to adult male Wistar rats (n=4) perorally in a cassette dosing method (vehicle: Labrasol/water 1/1). The plasma profiles were established by means of LC-MS/MS.
• Cmax obs highest measured concentration • Cz last analytically quantifiable concentration • tmax obs time to reach the highest measured concentration • tz time to withdrawal of the last sample with analytically quantifiable concentration • t1/2z half life (determined from the slope of the declining portion of the concentration vs. time curve • AUC0-tz area below the concentration vs. time curve up to time tZ • AUC0-∞ area below the concentration vs. time curve, extrapolated to ∞

T3 sequence (P33261 whole entry): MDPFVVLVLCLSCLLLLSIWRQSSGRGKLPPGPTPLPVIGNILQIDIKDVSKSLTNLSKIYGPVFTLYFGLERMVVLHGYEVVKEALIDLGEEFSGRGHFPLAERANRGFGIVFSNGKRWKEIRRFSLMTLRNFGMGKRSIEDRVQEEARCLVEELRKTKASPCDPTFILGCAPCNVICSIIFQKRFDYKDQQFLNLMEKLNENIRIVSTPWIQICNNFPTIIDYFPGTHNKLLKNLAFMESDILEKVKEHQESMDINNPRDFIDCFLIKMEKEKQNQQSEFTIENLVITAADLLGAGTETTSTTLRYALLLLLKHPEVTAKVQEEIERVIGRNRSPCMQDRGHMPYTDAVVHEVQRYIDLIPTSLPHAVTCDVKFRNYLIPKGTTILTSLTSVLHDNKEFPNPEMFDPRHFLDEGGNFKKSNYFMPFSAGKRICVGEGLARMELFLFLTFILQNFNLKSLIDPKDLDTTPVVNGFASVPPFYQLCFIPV

Row | SMILES | Permeability (class in words) (CaCo-2 cells) | Papp at 180 min, 50 μM (CaCo2 transport assay) [×10⁻⁶ cm/s] | IC50 (17β-HSD2) [nM] | IC50 (17β-HSD1) [nM] | Selectivity IC50 (17β-HSD2)/IC50 (17β-HSD1) (17β-HSD1) | IC50 (CYP2C19) [nM] | IC50 (CYP1A2) [nM] | tz (time of last sample with quantifiable concentration) [1] [h] | Cz (last analytically quantifiable concentration) ([1]; plasma) [ng/mL] | AUC(0-t) ([1]; male, Wistar, plasma, po) [ng·h/mL] | AUC(0-inf) ([1]; male, Wistar, plasma, po) [ng·h/mL] | half-life ([1]; male, Wistar, plasma, po, read-out: t1/2z (half life) (converted)) [h] | Tmax ([1]; male, Wistar, plasma, po, read-out: tmax obs (time to reach the highest measured concentration)) [h] | Cmax ([1]; male, Wistar, po, plasma, read-out: Cmax obs (highest measured concentration)) [ng/mL] | t1/2z (half life) [1] [h] | tmax obs (time to reach the highest measured concentration) [1] [h]
1 | Oc1ccc(-c2cnc(-c3cccc(O)c3)o2)cc1 [Compound 8, 3-[5-(4-Hydroxyphenyl)-1,3-oxazole-2-yl]phenol] | medium-high | 7.9 | 1020 | 570 | 1.8 |  |  |  |  |  |  |  |  |  |  | 
2 | Cc1cc(O)cc(-c2ccc(-c3ccc(O)cc3)s2)c1 [Compound 53, 3-[5-(4-Hydroxyphenyl)-2-thienyl]-5-methylphenol] | high | 24.2 |  | 450 |  |  |  |  |  |  |  |  |  |  |  | 
3 | Oc1ccc(-c2cnc(-c3cccc(O)c3)s2)cc1 [Compound 19, 3-[5-(4-Hydroxyphenyl)-1,3-thiazole-2-yl]phenol] | medium-high | 7.8 | 4000 | 50 | 80 |  |  |  |  |  |  |  |  |  |  | 
4 | Oc1ccc(-c2cc(-c3cccc(O)c3)cs2)cc1 [Compound 32, 3-[5-(4-Hydroxyphenyl)-3-thienyl]phenol] | high |  | 1700 | 130 |  | 4430 ± 170 | 8680 ± 290 |  |  |  |  |  |  |  |  | 
5 | Oc1cccc(-c2nsc(-c3cccc(O)c3)n2)c1 [Compound 37] | medium | 3.6 | 600 | 180 | 3.3 |  |  |  |  |  |  |  |  |  |  | 
6 | Oc1ccc(-c2cc(-c3cccc(O)c3)on2)cc1 [Compound 18, 3-[3-(4-Hydroxyphenyl)isoxazole-5-yl]phenol] | medium-high | 7.3 | 800 | 560 | 1.4 |  |  |  |  |  |  |  |  |  |  | 
7 | Oc1ccc(-c2ncc(-c3cccc(O)c3)s2)cc1 [Compound 20, 3-[2-(4-Hydroxyphenyl)-1,3-thiazole-5-yl]phenol] | high | 11.7 | 3100 | 180 | 17 |  |  |  |  |  |  |  |  |  |  | 
8 | Oc1ccc(-c2ccc(-c3cccc(O)c3)s2)cc1 [Compound 29, 3-[5-(4-Hydroxyphenyl)-2-thienyl]phenol] | high | 22 | 1950 | 60 | 33 |  |  | 10.0 | 6.56 | 99.2 | 99.2 | 1.5 | 8 | 7.8 |  | 
9 | Oc1ccc(-c2cccc(-c3ccc(O)cc3)c2)cc1 [Compound 41, [1,1′;3′,1″]Terphenyl-4,4″-diol] | high | 12.6 | 2200 | 1600 | 1.4 |  |  |  |  |  |  |  |  |  |  | 
10 | Oc1cccc(-c2ccc(-c3ccc(O)c(F)c3)s2)c1 [Compound 47, 2-Fluoro-4-[5-(3-hydroxyphenyl)-2-thienyl]phenol] |  |  | 940 | 10 | 94 |  |  | 24.0 | 25 | 19300 | 19400 |  |  |  | 2.7 | 8.0
